Source: PMC6728359, “Crystal structure and chemical inhibition of essential schistosome host-interactive virulence factor carbonic anhydrase SmCA” (Communications Biology, 2019)
Read-outs that look alike come from different tables or passages of the source.

Key:
[1] = target: recombinant human isoform hCA II; settings: cited from earlier work
[2] = target: rSmCA (recombinant SmCA, α-carbonic anhydrase) (Schistosoma mansoni, UniProt A0A3Q0KSG2); assay: biochemical; format: biochemical
[3] = target: recombinant human isoform hCA I; settings: cited from earlier work

rSmCA (recombinant SmCA, α-carbonic anhydrase), sequence (A0A3Q0KSG2 21-298 limits assumed): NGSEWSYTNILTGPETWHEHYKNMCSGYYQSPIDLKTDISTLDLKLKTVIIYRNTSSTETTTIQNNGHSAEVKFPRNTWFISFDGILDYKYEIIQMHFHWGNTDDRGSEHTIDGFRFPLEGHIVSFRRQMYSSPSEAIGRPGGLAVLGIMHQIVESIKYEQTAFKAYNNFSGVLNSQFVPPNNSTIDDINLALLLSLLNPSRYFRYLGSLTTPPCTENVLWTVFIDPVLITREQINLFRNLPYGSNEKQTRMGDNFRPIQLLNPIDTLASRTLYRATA

| Molecule | Ki [3] [mM] | Ki ([2]; read-out: Ki SmCA) [mM] | further results |
| --- | --- | --- | --- |
| CC1(C)O[C@@H]2[C@@H](CO[C@@]3(COS(N)(=O)=O)OC(C)(C)O[C@@H]23)O1 [TPM, topiramate] |  |  | Ki ([1]; read-out: Ki hCAII): 1e-05 mM; Ki [2]: 0.000568 mM |
| O=S(O)O [HSO3^−] | 18 | > 100 |  |
| [Br-].[K+] [Br−, bromide] | 4 | 9.35 | Ki [1]: 63 mM |
| OB(O)c1ccccc1 [Ph-B(OH) 2, phenylboronic acid] | 58.6 |  | Ki [2]: 0.02 mM; higher affinity for SmCA versus human isoforms hCA I or hCA II [2]: > 1000 fold |
| P2O7^4− | 25.8 | > 100 |  |
| NS(=O)(=O)c1ccc(S(=O)(=O)Nc2cccc3c(Cl)c[nH]c23)cc1 [IND, indisulam] |  |  | Ki [2]: 3.65e-05 mM |
| N#C[SeH] [SeCN^−] | 0.085 | 2.16 |  |
| F [F^−, fluoride] |  | 6.44 |  |
| [O]=[Sn]([OH])[OH] [SnO3^2−] |  | 4.11 |  |
| N#CO [CNO^−, cyanate] |  | 4.18 |  |
| Cc1onc(-c2ccccc2)c1-c1ccc(S(N)(=O)=O)cc1 [VLX, valdecoxib] |  |  | Ki [2]: 0.000431 mM |
| O=[N+]([O-])O [NO3−, nitrate] | 7 | 7.87 |  |
| [N-]=[N+]=[N-] [N3^−, azide] |  | 2.43 |  |
| CCN(CC)C(=S)S [Et2NCS2^−] | 0.0008 | 0.59 | Ki [1]: 0.0031 mM |
| NS(N)(=O)=O [H 2 NSO 2 NH 2, sulfamide] |  | 0.007 | greater potency over SmCA versus hCA I [2]: 44 fold; greater potency over SmCA versus hCA II [2]: 161 fold |
| O=[Se](=O)(O)O [SeO4^2−] |  | 6.33 |  |
| S [HS^−, hydrosulfide] | 0.0006 | 5.96 |  |
| I [I^−, iodide] | 0.3 | 5.11 |  |
| S2O8^2− |  | 7.85 |  |

| Molecule | Ki [3] [mM] | Ki ([2]; read-out: Ki SmCA) [mM] | further results |
| --- | --- | --- | --- |
| NS(=O)(=O)c1cc2c(cc1Cl)NCNS2(=O)=O [HCT, hydrochlorothiazide] |  |  | Ki [2]: 0.000399 mM |
| SO4^2− |  | 6.86 |  |
| NS(=O)(=O)Cc1noc2ccccc12 [ZNS, zonisamide] |  |  | Ki [2]: 0.000937 mM |
| O=[As](O)(O)c1ccccc1 [Ph-AsO 3 H 2, phenylarsonic acid] | 31.7 |  | Ki [1]: 49.2 mM |
| OsO5^2− |  | 7.55 |  |
| CCN[C@H]1CN(CCCOC)S(=O)(=O)c2sc(S(N)(=O)=O)cc21 [BRZ, brinzolamide] |  |  | Ki [2]: 4.66e-05 mM |
| O=S(=O)(O)F [FSO3^−] |  | 6.02 |  |
| [O-][Cl+3]([O-])([O-])O [ClO4^−, perchlorate] |  | > 100 |  |
| [O]=[Ru](=[O])(=[O])=[O] [RuO4^−] |  | 2.07 |  |
| NS(=O)(=O)c1ccc(N2CCCCS2(=O)=O)cc1 [SLT, sulthiame] |  |  | Ki [2]: 0.00356 mM |
| CS3^2− | 0.0087 | 6.16 |  |
| NS(=O)(=O)c1nnc(NS(=O)(=O)c2ccccc2)s1 [BZA, benzolamide] |  |  | Ki [2]: 3.41e-05 mM |
| O=C1NS(=O)(=O)c2ccccc21 [SAC, saccharin] |  |  | Ki ([3]; read-out: Ki hCAI): 0.0185 mM; Ki [2]: > 0.05 mM |
| O=[Te](=O)(O)O [TeO4^2−] | 0.66 | > 100 |  |
| CC(=O)/N=c1/sc(S(N)(=O)=O)nn1C [MZA, methazolamide] |  |  | Ki [2]: 3.89e-05 mM |
| O=C(O)O [HCO3−] |  | 5.1 |  |
| CF3SO3^− |  | 5.62 |  |
| [O]=[Re](=[O])(=[O])[OH] [ReO4^−] |  | 8.75 |  |
| N#CS [SCN−, thiocyanate] |  | 3.15 |  |
